From patent publication US20250129104A1, “7H-PYRROLO[2,3-D]PYRIMIDINES AND PREPARATION AND USES THEREOF” (BioSplice Therapeutics, Inc., priority 2021, published 2025)

Experiments:
[1] = molecular target: recombinant DYRK1A kinase (Homo sapiens (Human), UniProt Q13627); test: DYRK1A kinase assay (Ser/Thr 18 peptide Z-lyte FRET assay); assay type: biochemical; settings: DYRK1A kinase activity; 15 μM ATP, 1 h room temperature; method text calls the value IC50
Outline: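 Recombinant human DYRK1A (0.25 μg/mL) with 15 μM ATP and 4 μM Ser/Thr 18 peptide, 1 h at room temperature with compound (11-point, 1:3, 10 μM top, duplicate). Z-lyte development 1 h, then coumarin/fluorescein FRET emission ratio converted to % phosphorylation; IC50 by non-linear regression.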

[2] = system: Tau phosphorylation at Thr212 (pThr212); test: tau phosphorylation assay: phosphoTau (Thr212) AlphaLISA in HEK293T cells transfected with DYRK1A and MAPT; assay type: cell-based; settings: HEK-293T; HEK293T cells transfected with human DYRK1A and MAPT; 18-24 h compound treatment; read-out: pTau (Thr212) EC50
Outline: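 HEK293T cells transiently co-transfected with human untagged DYRK1A and MAPT (441 aa Tau), reseeded, then treated 18-24 h at 37 °C with compounds (10-point 1:3 series, 20 μM to 1.1 nM final, duplicates). Lysates probed by AlphaLISA with HT7 donor and pThr212 acceptor antibodies; EC50 from curve fit of signal.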

EC50 [1] [nM]	EC50 [2] [nM]	SMILES
3.1	30	C[C@@H](Nc1ncc2c(-c3ccc4nccn4c3)c[nH]c2n1)C(F)(F)F [Compound 115, (R)-5-(Imidazo[1,2-a]pyridin-6-yl)-N-(1,1,1-trifluoropropan-2-yl)-7H-pyrrolo [2,3-d]pyrimidin-2-amine]
14.5	360	Cc1nc2ccc(-c3c[nH]c4nc(NCC(C)(C)F)ncc34)cc2s1 [Compound 24, N-(2-Fluoro-2-methylpropyl)-5-(2-methylbenzo[d]thiazol-6-yl)-7H-pyrrolo [2,3-d]pyrimidin-2-amine]
7.1	30	Fc1cc(-c2c[nH]c3nc(NCC4(F)CC4)ncc23)cn2ccnc12 [Compound 208, N-((1-Fluorocyclopropyl)methyl)-5-(8-fluoroimidazo[1,2-a]pyridin-6-yl)-7H-pyrrolo[2,3-d]pyrimidin-2-amine]
18	470	CC(C)CNc1ncc2c(-c3cc(F)c4ncnn4c3)c[nH]c2n1 [Compound 771, 5-(8-Fluoro-[1,2,4]triazolo[1,5-a]pyridin-6-yl)-N-isobutyl-7H-pyrrolo[2,3-d]pyrimidin-2-amine]
25.9	476	CC[C@H](C)Nc1ncc2c(-c3ccc4ncc(F)n4c3)c[nH]c2n1 [Compound 154, (S)—N-(sec-Butyl)-5-(3-fluoroimidazo[1,2-a]pyridin-6-yl)-7H-pyrrolo[2,3-d]pyrimidin-2-amine]
531	28	Cc1nc2ccc(-c3c[nH]c4nc(NCC(C)(C)F)ncc34)nc2n1C [Compound 629, 5-(2,3-Dimethyl-3H-imidazo[4,5-b]pyridin-5-yl)-N-(2-fluoro-2-methylpropyl)-7H-pyrrolo[2,3-d]pyrimidin-2-amine]
9	2	CO[C@H]1CC[C@@H](Nc2ncc3c(-c4ccc5ncccc5c4)c[nH]c3n2)CC1 [Compound 1885, N-(cis-4-Methoxycyclohexyl)-5-(quinolin-6-yl)-7H-pyrrolo[2,3-d]pyrimidin-2-amine]
36	22	CC(C)(C)CNc1ncc2c(-c3ccc4nccn4c3)c[nH]c2n1 [Compound 110, 5-(Imidazo[1,2-a]pyridin-6-yl)-N-neopentyl-7H-pyrrolo[2,3-d]pyrimidin-2-amine]

Continued, compound first:

SMILES	EC50 [1] [nM]	EC50 [2] [nM]
FC1(F)CC(Nc2ncc3c(-c4ccc5ncnn5c4)c[nH]c3n2)C1 [Compound 744, 5-([1,2,4]Triazolo[1,5-a]pyridin-6-yl)-N-(3,3-difluorocyclobutyl)-7H-pyrrolo [2,3-d]pyrimidin-2-amine]	6.5	213
C[C@@H](Nc1ncc2c(-c3ccc4nccn4n3)c[nH]c2n1)C(F)(F)F [Compound 912, (R)-5-(Imidazo[1,2-b]pyridazin-6-yl)-N-(1,1,1-trifluoropropan-2-yl)-7H-pyrrolo[2,3-d]pyrimidin-2-amine]	5.5	96
c1cc2cc(-c3c[nH]c4nc(C5CC5)ncc34)ccn2n1 [Compound 1115, 2-Cyclopropyl-5-(pyrazolo[1,5-a]pyridin-5-yl)-7H-pyrrolo[2,3-d]pyrimidine]	24.9	386
FC1(F)CCC(Nc2ncc3c(-c4ccc5ncnn5c4)c[nH]c3n2)CC1 [Compound 746, 5-([1,2,4]Triazolo[1,5-a]pyridin-6-yl)-N-(4,4-difluorocyclohexyl)-7H-pyrrolo [2,3-d]pyrimidin-2-amine]	29.2	521
FC1(F)CCC(CNc2ncc3c(-c4ccc5ncnn5c4)c[nH]c3n2)CC1 [Compound 749, 5-([1,2,4]Triazolo[1,5-a]pyridin-6-yl)-N-((4,4-difluorocyclohexyl)methyl)-7H-pyrrolo[2,3-d]pyrimidin-2-amine]	7	80
FC1(CNc2ncc3c(-c4ccc5nccn5n4)c[nH]c3n2)CCC1 [Compound 923, N-((1-Fluorocyclobutyl)methyl)-5-(imidazo[1,2-b]pyridazin-6-yl)-7H-pyrrolo[2,3-d]pyrimidin-2-amine]	2.5	20
c1cc2cc(-c3c[nH]c4nc(NC5CC6(COC6)C5)ncc34)ccn2n1 [Compound 1141, 5-(Pyrazolo[1,5-a]pyridin-5-yl)-N-(2-oxaspiro[3.3]heptan-6-yl)-7H-pyrrolo [2,3-d]pyrimidin-2-amine]	385	7
FC1(CNc2ncc3c(-c4ccn5nccc5n4)c[nH]c3n2)CCC1 [Compound 1662, N-((1-Fluorocyclobutyl)methyl)-5-(pyrazolo[1,5-a]pyrimidin-5-yl)-7H-pyrrolo[2,3-d]pyrimidin-2-amine]	13.4	103
O=C(NC1CC(F)(F)C1)c1cnn2ccc(-c3c[nH]c4nc(C5CC5)ncc34)cc12 [Compound 1378, 5-(2-Cyclopropyl-7H-pyrrolo[2,3-d]pyrimidin-5-yl)-N-(3,3-difluorocyclobutyl)pyrazolo[1,5-a]pyridine-3-carboxamide]	2.6	604
CN1CCC(Nc2ncc3c(-c4ccn5ncc(C(=O)N6CCCCC6)c5c4)c[nH]c3n2)CC1 [Compound 1233, (5-(2-((1-Methylpiperidin-4-yl)amino)-7H-pyrrolo[2,3-d]pyrimidin-5-yl)pyrazolo[1,5-a]pyridin-3-yl)(piperidin-1-yl)methanone]	18.1	116
FC1(CNc2ncc3c(-c4ccc5ncnn5c4)c[nH]c3n2)CCC1 [Compound 745, 5-([1,2,4]Triazolo[1,5-a]pyridin-6-yl)-N-((1-fluorocyclobutyl)methyl)-7H-pyrrolo[2,3-d]pyrimidin-2-amine]	5.1	90
FC1(F)CCC(Nc2ncc3c(-c4ccn5nccc5c4)c[nH]c3n2)CC1 [Compound 1142, N-(4,4-Difluorocyclohexyl)-5-(pyrazolo[1,5-a]pyridin-5-yl)-7H-pyrrolo[2,3-d]pyrimidin-2-amine]	5.7	32
Cc1nc2c(F)cc(-c3c[nH]c4nc(C5CCC5)ncc34)cc2n1C(C)C [Compound 500, 2-Cyclobutyl-5-(4-fluoro-1-isopropyl-2-methyl-1H-benzo[d]imidazol-6-yl)-7H-pyrrolo[2,3-d]pyrimidine]	19.8	338
O=C(NCC(F)F)c1cnn2ccc(-c3c[nH]c4nc(C5CC5)ncc34)cc12 [Compound 1249, 5-(2-Cyclopropyl-7H-pyrrolo[2,3-d]pyrimidin-5-yl)-N-(2,2-difluoroethyl) pyrazolo[1,5-a]pyridine-3-carboxamide]	1.6	27
c1cn2cc(-c3c[nH]c4nc(CC5CCC5)ncc34)cnc2n1 [Compound 452, 2-(Cyclobutylmethyl)-5-(imidazo[1,2-a]pyrimidin-6-yl)-7H-pyrrolo[2,3-d]pyrimidine]	20.2	1220
